Measured values reported in patent US10344335B2, “Mutant calreticulin for the diagnosis of myeloid malignancies” (CEMM—FORSCHUNGSZENTRUM FUER MOLEKULARE MEDIZIN GMBH, priority 2013, dated 2019).

System: Ba/F3 cells expressing empty vector (GFP), CALR wild type or CALR del52
Assay: Sensitivity of Ba/F3 cells to the inhibitor SAR302503 (CellTiter-Glo cell viability)
Format: cell-based, murine
Settings: Ba/F3 cells expressing CALR wild type vs CALR del52; 48 hours; 10 ng/ml interleukin-3; dilution series, highest concentration 40 μM; listed as JAK2 kinase inhibitor
Procedure: Ba/F3 cells expressing the empty vector (GFP), CALR wild type (CALR wt-GFP) or CALR mutant (CALR del52-GFP) were analyzed by defining cell viability after 48 hours in presence of decreasing SAR302503. For relative viability, relative luminescence units were normalized to the DMSO control. Error bars represent standard error of the mean.
To define the sensitivity to the inhibitor SAR302503 (Sanofi), Ba/F3 cells were plated in 96-well plates at 25000 cells per well in triplicates on a dilution series of SAR302503 (highest concentration 40 μM) and in presence of 10 ng/ml interleukin-3. After 48 hours cell viability was determined by the CellTiter-Glo® Luminescent Cell Viability Assay (Promega).

`Cc1cnc(Nc2ccc(OCCN3CCCC3)cc2)nc1Nc1cccc(S(=O)(=O)NC(C)(C)C)c1` [SAR302503] was tested, and the “sensitivity of cells to SAR302503 (cell viability)” value was “suppressed equally”.
